Assay results: patent US20140371244A1, “METHOD FOR TREATING PROSTATE CANCER BY USE OF PHARMACEUTICAL COMPOSITION CONTAINING A3 ADENOSINE RECEPTOR AGONIST” (priority 2009, published 2014)

Assays:
[1] = system: LPS-induced sepsis; assay: Animal model with LPS-induced sepsis; format: in vivo, ICR mice; details: LPS (S. marcenes) 2 mg/kg then 10 mg/kg
Description: The effect of the inventive composition (thio-Cl-IB-MECA) in an animal model with LPS-induced sepsis was tested. S. marcenes-derived LPS used in the test is known to be strongly pathogenic compared to E. coli-derived LPS. First, LPS was administered at low dose to attenuate an immune response in animals, and after a given time, it was administered at high dose to rapidly induce sepsis and septic shock. Specifically, ICR mice (20-25 g, male) were divided into the following 5 groups, each consisting of 6 mice: a normal group not treated with any substance; a control group administered with only saline; groups administered with the inventive composition (200 and 500 μg/kg of thio-Cl-IB-MECA); and a group administered with the conventional A3 adenosine receptor agonist (500 μg/kg IB-MECA). 30 minutes administration of these drugs, a solution of 2 mg/kg LPS (S. marcenes) in saline was administered intraabdominally. After 20 hours, the drug was administered again, and 30 minutes, LPS (S. marcenes) was administered again at a dose of 10 mg/kg. The mice were observed hourly up to 6 hours after the second stimulation, and the survival rate was observed up to 7 days after the second stimulation. The effect of the inventive composition (thio-Cl-IB-MECA) was compared with the effect of the prior A3 adenosine receptor agonist (IB-MECA), and the effects of the inventive composition (thio-Cl-IB-MECA) at different doses (200 and 500 μg/kg) were compared with each other.
The change in bodyweight was measured before the start of the test, before the second administration of the drug, and 7 days after the second administration.

[2] = system: human colorectal cancer HCT 116 cells; assay: Anticancer activity in nude mice transplanted with HCT 116 cells; format: in vivo, nude mice (Balb/c-nu/nu mice); details: for side effects (such as a change in bodyweight) during the test period: 0.02, 0.2 and 2 mg/kg orally for 21 days
Description: HCT 116 cells were prepared at a concentration of 2×10^6 cells/200 μl (RPMI) and administered subcutaneously into the right frank of 6-week-old female nude mice (Balb/c-nu/nu mice). The tumor size was measured with calipers, and the tumor size reached about 100 mm^3, 20 mice having substantially the same tumor size were divided into a control group and three sample-treated groups. The three sample-treated group were administered orally with IB-MECA at doses of 0.02, 0.2 and 2 mg/kg, respectively, for 21 days. In the control group and the sample-treated groups, the bodyweight was measured once every week, and the tumor size was measured at intervals of 3-4 days. The tumor volume was measured using equation 3 above. In the equation, a represents the longer diameter of the tumor, b represents the shorter diameter of the tumor, and c represents the height of the tumor.
Anticancer activity was measured by an animal test in the same manner as Example 20, except that 6-week-old female nude mice were administered with Cl-IB-MECA in place of IB-MECA as a sample.
Anticancer activity was measured by an animal test in the same manner as Example 20, except that 6-week-old female nude mice were administered with thio-Cl-IB-MECA in place of IB-MECA as a sample.

[3] = system: LNCaP (androgen receptor dependent); assay: SRB assay, growth of LNCaP cells; format: cell-based, human; details: for IC50: SRB, 3 days
Description: (§1) In order to examine the inhibitory effects on the growth of the human prostate cancer cells LNCaP (androgen receptor dependent) and PC-3 (androgen receptor independent), a sulforhodamine B (SRB) assay was performed.
(§2) 10 μL of a solution of thio-Cl-IB-MECA in 10% dimethylsulfoxide (DMSO) was loaded in each well of a 96-well plate in triplicate at concentrations of 50, 25, 12.5 and 6.25 μM, thus making a test plate. Cells were diluted to a density of 6×10^4 cells/ml with 10% FBS-containing RPMI 1640 medium supplemented with antibiotics-antimycotics, and 190 μL of the cell suspension was added to each well so as to reach a total volume of 200 μL and was cultured in a 5% CO2 incubator at 37° C. for 3 days. At the same time, 190 μL of the same cell suspension was loaded into each of 16 wells or more of a fresh 96-well plate containing no sample (thio-Cl-IB-MECA) and was cultured in a 5% CO2 incubator at 37° C. for 30 minutes, thereby determining reference date. After the culture, 50 μL of 50% trichloroacetic acid (TCA) was added to each well, and the cells were fixed by culture at 4° C. for 1 hour. Then, the well plate was washed five times with tap water and dried. 100 μL of 1% acetic acid solution containing […] sulforhodamine B (SRB) was added to each well to stain the cells, and the well plate was allowed to stand at room temperature for 1 hour. After the well plate has been washed five times with 1% acetic acid and sufficiently dried, 200 μL of 100 mM Tris-base was added to each well, and the bound staining liquid was dissolved and sufficiently shaken in a shaker. Then, the absorbance at 515 nm was measured using an ELISA microplate reader. Based on the measured absorbance, the cell viability of the test group relative to the control group was calculated using the following equation 2, and based on the viability at each concentration, the IC50 value of the sample was calculated using TableCurve program: […]

[4] = system: PC-3 (androgen receptor independent); assay: SRB assay, growth of PC-3 cells; format: cell-based, human; details: for IC50: SRB, 3 days
Description: as §1, §2

[5] = system: iNOS (inducible nitric oxide synthase); assay: NO production inhibitory activity (iNOS assay) in LPS-stimulated RAW 264.7 cells; format: cell-based, mouse; details: LPS 1 μg/ml; for IC50: RAW 264.7 cells, 20 hours, read-out: IC50 of NO production inhibition
Description: A test was carried out to examine the inhibitory activity of the inhibitory activity of the inventive composition on the enzyme iNOS (inducible nitric oxide synthase) whose expression increases when inflammatory reactions and traumas exist.
Specifically, RAW 264.7 cells (5×10^5 cells/ml) were added to a 24-well plate with 10% FBS-containing DMEM medium in an amount of 1 ml per well and cultured for 24 hours. […] After 30 minutes, 1 μg/ml of LPS was added to the cells which were then cultured in a 5% CO2 incubator at 37° C. for 20 hours (test groups). As a blank, RAW cells cultured without addition of LPS and the inventive composition were used, and as a control group, RAW cells cultured with addition of only LPS were used.
100 μl of the supernatant of each well was taken and allowed to react with 90 μl of each of sulfanilamide solution and N-(1-naphtyl)-ethylenediamine solution. Then, each reaction product was measured for absorbance at 540 nm to determine the amount of nitrate or nitrite produced in the culture medium, and the results of the measurement are shown in FIG. 1.
A standard curve was potted using NaNO2 solution, and the NO production inhibitory activity of each of the samples was evaluated by calculating NaNO2 concentration in each test group relative to the control group using the following equation 1 based on the measured absorbance and comparing the calculated NaNO2 concentration with that in the group treated with LPS alone. Inhibition rate (%) was calculated as nitrate concentration using the following equation, and then the IC50 value of the composition was calculated.

Row | SMILES | survival rate after 1 day ([1]; 500 μg/kg) [%] | inhibition rate of tumor growth ([2]; 0.02 mg/kg orally for 21 days) [%] | inhibition rate of tumor growth ([2]; 0.2 mg/kg orally for 21 days) [%] | inhibition rate of tumor growth ([2]; 2 mg/kg orally for 21 days) [%] | side effects (such as a change in bodyweight) during the test period [2] | cell viability in LNCaP ([3]; 50 μM (highest concentration)) [%] | IC50 [3] [µM] | cell viability in PC-3 ([4]; 50 μM (highest concentration)) [%] | IC50 [4] [µM] | IC50 [5] [µM] | survival rate after 1 day ([1]; 200 μg/kg) [%] | production of NO ([5]; 5, 10 and 20 μM)
1 | CNC(=O)[C@H]1O[C@@H](n2cnc3c(NCc4cccc(I)c4)ncnc32)[C@H](O)[C@@H]1O [IB-MECA] | 66.7 | 20.7 | 48.7 | 58.6 | survived healthfully without particular side effects | 54 | 54.2 | 63 | 97.1 | 65.7 |  | 
2 | CNC(=O)[C@H]1S[C@@H](n2cnc3c(NCc4cccc(I)c4)nc(Cl)nc32)[C@H](O)[C@@H]1O [thio-Cl-IB-MECA, 2-chloro-N^6-(3-iodobenzyl)-4′-thioadenosine-5′-N-methyluronamide] | 66.7 | 16.1 | 54.4 | 62.1 | survived healthfully without particular side effects |  | 18.6 |  | 20.4 | 16.2 | 71.4 | inhibited in a concentration-dependent manner
